A short description of data set [1]: Compound was evaluated for induced thermal stabilization for compound: DNA ratio of 1:10 at 0.1 to 0.2 degrees Centigrade. Further details: unit: °C.
Data set [2] relates to A2780. Kind of data set: Compound was evaluated for cytotoxicity against A2780 cis cell lines. The class given is functional, cell-based. The settings on record: Homo sapiens.
For a further data set, the system named is MAC15A. Kind of data set: Compound was evaluated for cytotoxicity against Mac15A cell lines. The class given is functional, cell-based. The following applies: Mus musculus.
The next data set has as its system SK-OV-3. Kind of data set: Compound was evaluated for cytotoxicity against SCOV-3 cell lines. It is filed as functional, cell-based. The following applies: Homo sapiens.
For data set [3], the system named is A2780. Kind of data set: Compound was evaluated for cytotoxicity against A2780 cell lines. The class given is functional, cell-based. The settings on record: Homo sapiens.
A short description of data set [4]: Compound was evaluated for induced thermal stabilization for compound: DNA ratio of 1:5 at 0.1 to 0.2 degrees Centigrade. On the set-up: unit: °C.
Another data set relates to MOLT-4. Kind of data set: Compound was evaluated for cytotoxicity against MOLT-4 cell lines. The following applies: Homo sapiens. It is filed as functional, cell-based.
The subject of the next data set is MCF7. Kind of data set: Compound was evaluated for cytotoxicity against MCF-7 cell lines. It is filed as functional, cell-based. The settings on record: Homo sapiens.
The subject of the next data set is HOP-92. Kind of data set: Compound was evaluated for cytotoxicity against HOP-92 cell lines. It is filed as functional, cell-based. The settings on record: Homo sapiens.
A further data set has as its system SW-620. Kind of data set: Compound was evaluated for cytotoxicity against SW-620 cell lines. It is filed as functional, cell-based. The following applies: Homo sapiens.
A further data set deals with WEHI. Kind of data set: Compound was evaluated for cytotoxicity against WEHI cell lines. The class given is functional, cell-based. The following applies: Mus musculus.

Each structure is given as a SMILES string.

Turning to `O=C(NCCN1CCCCC1)c1cn2c(ccc3sc4ccccc4c(=O)c32)n1`, the “Change in Tm” value in [1] is recorded as 6; in data set [4], 10.5. For the same compound, the IC50 was found to be 650 nM in the data set on A2780 [2], 180 nM in the data set on MAC15A, 7700 nM in the data set on SK-OV-3 and 560 nM in the data set on A2780 [3].

`CN(C)CCCNC(=O)c1cn2c(ccc3sc4ccccc4c(=O)c32)n1`: the “Change in Tm” value came to 5.7 in data set [1] and 10.4 in data set [4]. The IC50 in the data set on MOLT-4 was 420 nM; in the data set on A2780 [2] it was 760 nM; with MAC15A it was 500 nM; in the data set on MCF7 it was 11200 nM; with SK-OV-3, 2150 nM; in the data set with A2780 [3], 540 nM. Further, the results for the IC50 with HOP-92, in the data set with SW-620 and with WEHI were 360 nM, 1440 nM and 300 nM, respectively.

Take `O=C(NCCN1CCCC1)c1cn2c(ccc3sc4ccccc4c(=O)c32)n1`: the “Change in Tm” value in data set [1] is recorded as 3.4; in [4] it was 6.5. Also, the half-maximal inhibitory concentration (IC50) was determined as 470 nM in the data set with MOLT-4; 6000 nM in the data set on A2780 [2]; 610 nM in the data set with MCF7; 29000 nM with SK-OV-3; 4500 nM with A2780 [3]; 15900 nM in the data set on HOP-92. In the data set on SW-620, this compound registered an IC50 of 1520 nM.

On to `O=C(c1cn2c(ccc3sc4ccccc4c(=O)c32)n1)N1CCN(CCO)CC1`, for which the “Change in Tm” value is 1.9 in data set [1] and 3.5 in data set [4]. Further, the IC50 in the data set on A2780 [2] is 1800 nM; in the data set on MAC15A it was 420 nM; in the data set on SK-OV-3, 13500 nM; with A2780 [3], 740 nM.

In the case of `O=C(NCCN1CCOCC1)c1cn2c(ccc3sc4ccccc4c(=O)c32)n1`, the “Change in Tm” value in data set [1] came out at 1.6; in data set [4], 2.9. Besides, the IC50 with MOLT-4 came out at 3300 nM; with A2780 [2] it was 7600 nM; with MCF7, 7080 nM; with SK-OV-3, 23000 nM; in the data set on A2780 [3], 5800 nM; with HOP-92, 12800 nM. For the same compound, 4850 nM corresponded to half-maximal inhibition with SW-620 (IC50).

With `CCN(CC)CCCNC(=O)c1cn2c(ccc3sc4ccccc4c(=O)c32)n1`, the “Change in Tm” value in data set [1] came to 7; in data set [4], 12.4. The results for the IC50 with A2780 [2], in the data set with SK-OV-3 and with A2780 [3] were 480 nM, 1650 nM and 430 nM, respectively.

As for `CCOC(=O)c1cn2c(ccc3sc4ccccc4c(=O)c32)n1`, the “Change in Tm” value in data set [1] turned out to be 0.5; in data set [4] it was 1.2. For the same compound, the IC50 is greater than 100000 nM in the data set on MOLT-4; greater than 100000 nM in the data set on A2780 [2]; 84400 nM in the data set with MCF7; greater than 100000 nM with SK-OV-3; greater than 100000 nM with A2780 [3]; 87500 nM with HOP-92. The half-maximal inhibitory concentration (IC50) in the data set on SW-620 and with WEHI was greater than 100000 nM each time.

For the compound `O=C1c2c(O)ccc(O)c2C(=O)c2c(NCCNCCO)ccc(NCCNCCO)c21` [MITOXANTRONE], the “Change in Tm” value in data set [1] is on record as 15; in [4], greater than 25. In addition, half-maximal inhibition in the data set on A2780 [3] (IC50) was put at 5500 nM.

`Nc1ccc2cc3ccc(N)cc3nc2c1` [PROFLAVINE]: the “Change in Tm” value in data set [1] turned out to be 6.3; in data set [4] it was 11.5.
